For the data set the following is noted: in water.

For orientation: solubility (mole fraction) means the moles of solute divided by all moles in the saturated solution.

`O=Cc1ccccc1`: the solubility (mole fraction) by setting is: (353.15 K) 0.00236; (363.15 K) 0.00261; (373.15 K) 0.0036.

Consider `O=Cc1ccco1`, for which the solubility (mole fraction) is, setting by setting: (353.15 K) 0.028; (363.15 K) 0.0314; (373.15 K) 0.034.

Turning to `CCCCCC1CCC(=O)O1` (configuration not stated), the solubility (mole fraction) by setting is: (323.15 K) 0.00072; (333.15 K) 0.00087; (343.15 K) 0.00099; (353.15 K) 0.00109; (363.15 K) 0.00118; (373.15 K) 0.00128.

For `OCCc1ccccc1`, the solubility (mole fraction) reads like this: (333.15 K) 0.0051; (343.15 K) 0.0055; (353.15 K) 0.0056; (363.15 K) 0.0065; (373.15 K) 0.0065.

The values are drawn from BigSolDB 2.1.
